From ChEMBL document CHEMBL6114965, “Novel dual-targeting PROTAC degraders of GSK-3β and CDK5: A promising approach for pancreatic cancer treatment” (Bioorg Med Chem, 2025)
Active and inactive are the calls of the source. The rule behind the calls is not given here.

Tests used:
[1] = target: T1, Protein cereblon/Glycogen synthase kinase-3 beta (Homo sapiens, UniProt P49841+Q96SW2); test: PROTAC activity at CRBN/GSK3beta in human PANC-1 cells assessed as induction of GSK3beta degradation at 1 to 2.8 uM incubated for 10 hrs by Western blot analysis; type: cell-based; conditions: dose 1-2.8 µM
Target sequence in this assay (P49841 whole entry, looked up): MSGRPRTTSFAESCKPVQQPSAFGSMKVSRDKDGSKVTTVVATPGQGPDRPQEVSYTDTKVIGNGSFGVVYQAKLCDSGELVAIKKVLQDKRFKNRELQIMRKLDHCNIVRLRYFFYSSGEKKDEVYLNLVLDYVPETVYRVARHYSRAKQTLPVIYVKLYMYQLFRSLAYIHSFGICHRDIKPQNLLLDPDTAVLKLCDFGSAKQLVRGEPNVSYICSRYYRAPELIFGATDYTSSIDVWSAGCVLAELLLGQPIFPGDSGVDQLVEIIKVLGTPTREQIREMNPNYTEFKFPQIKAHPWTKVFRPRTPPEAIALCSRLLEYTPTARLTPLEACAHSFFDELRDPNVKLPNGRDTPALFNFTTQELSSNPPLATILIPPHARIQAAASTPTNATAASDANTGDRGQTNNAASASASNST
Target sequence in this assay (Q96SW2 whole entry, looked up): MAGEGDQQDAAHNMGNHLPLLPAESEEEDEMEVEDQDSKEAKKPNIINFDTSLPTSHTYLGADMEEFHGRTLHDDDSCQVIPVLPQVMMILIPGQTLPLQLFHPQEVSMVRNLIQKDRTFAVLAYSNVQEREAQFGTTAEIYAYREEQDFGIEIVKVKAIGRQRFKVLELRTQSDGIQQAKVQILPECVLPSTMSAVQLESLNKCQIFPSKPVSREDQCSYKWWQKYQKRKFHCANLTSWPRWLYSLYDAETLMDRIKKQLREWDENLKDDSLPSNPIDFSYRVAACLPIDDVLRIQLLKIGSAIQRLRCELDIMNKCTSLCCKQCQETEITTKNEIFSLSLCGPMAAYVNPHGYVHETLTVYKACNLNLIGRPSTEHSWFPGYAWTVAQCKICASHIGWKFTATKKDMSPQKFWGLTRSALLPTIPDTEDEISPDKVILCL

[2] = target: T2, Protein cereblon/Cyclin-dependent kinase 5 (Homo sapiens, UniProt Q00535+Q96SW2); test: PROTAC activity at CRBN/CDK5 in human PANC-1 cells assessed as induction of CDK5 degradation by target engagement binding based cell-ELISA
Target sequence in this assay (Q00535 whole entry): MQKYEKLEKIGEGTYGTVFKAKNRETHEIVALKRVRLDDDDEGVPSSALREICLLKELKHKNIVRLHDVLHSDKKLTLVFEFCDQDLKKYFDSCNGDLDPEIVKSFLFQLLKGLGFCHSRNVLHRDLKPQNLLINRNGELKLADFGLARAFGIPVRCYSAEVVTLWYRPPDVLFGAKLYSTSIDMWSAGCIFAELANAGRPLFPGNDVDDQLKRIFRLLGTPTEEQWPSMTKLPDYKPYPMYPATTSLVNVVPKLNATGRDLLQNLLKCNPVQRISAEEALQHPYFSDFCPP
Target sequence in this assay (Q96SW2 whole entry): as the sequence (Q96SW2 whole entry, looked up) above

Cytochrome P450 1A2 = target: T3, Cytochrome P450 1A2 (Homo sapiens, UniProt P05177); test: Inhibition of CYP1A2 (unknown origin) using phenacetin as substrate […]; type: ADME
T3 sequence (P05177 whole entry): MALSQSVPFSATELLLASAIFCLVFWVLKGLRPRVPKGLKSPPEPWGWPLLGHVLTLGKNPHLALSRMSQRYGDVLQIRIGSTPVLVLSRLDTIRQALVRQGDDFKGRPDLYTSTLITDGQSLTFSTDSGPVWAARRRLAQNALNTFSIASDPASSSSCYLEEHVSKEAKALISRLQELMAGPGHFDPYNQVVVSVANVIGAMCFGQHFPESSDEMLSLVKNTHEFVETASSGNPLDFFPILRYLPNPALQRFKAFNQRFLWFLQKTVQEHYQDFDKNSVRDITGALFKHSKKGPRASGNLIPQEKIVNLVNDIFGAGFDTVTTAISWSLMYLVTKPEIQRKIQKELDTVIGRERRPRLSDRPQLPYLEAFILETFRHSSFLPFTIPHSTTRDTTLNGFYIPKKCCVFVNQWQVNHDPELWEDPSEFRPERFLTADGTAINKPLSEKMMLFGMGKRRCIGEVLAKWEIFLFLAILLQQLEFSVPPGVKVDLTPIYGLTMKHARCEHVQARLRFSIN

[3] = target: T2, Protein cereblon/Cyclin-dependent kinase 5; test: PROTAC activity at CRBN/CDK5 in human PANC-1 cells assessed as induction of CDK5 degradation at 1 to 2.8 uM incubated for 10 hrs by Western blot analysis; type: cell-based; conditions: dose 1-2.8 µM
Target sequence in this assay (Q00535 whole entry, looked up): as the sequence (Q00535 whole entry) above
Target sequence in this assay (Q96SW2 whole entry, looked up): as the sequence (Q96SW2 whole entry, looked up) above

PANC-1 = test: Antiproliferative activity against human PANC-1 cells assessed as inhibition of cell viability by MTT assay; type: functional, cell-based
Cytochrome P450 2C19 = Cytochrome P450 2C19 (Homo sapiens, UniProt P33261); test: Inhibition of CYP2C19 (unknown origin) using s-mephenytoin as substrate […]; type: ADME
Cytochrome P450 2B6 = target: T4, Cytochrome P450 2B6 (Homo sapiens, UniProt P20813); test: Inhibition of CYP2B6 (unknown origin) using bupropion as substrate […]; type: ADME
T4 sequence (P20813 whole entry): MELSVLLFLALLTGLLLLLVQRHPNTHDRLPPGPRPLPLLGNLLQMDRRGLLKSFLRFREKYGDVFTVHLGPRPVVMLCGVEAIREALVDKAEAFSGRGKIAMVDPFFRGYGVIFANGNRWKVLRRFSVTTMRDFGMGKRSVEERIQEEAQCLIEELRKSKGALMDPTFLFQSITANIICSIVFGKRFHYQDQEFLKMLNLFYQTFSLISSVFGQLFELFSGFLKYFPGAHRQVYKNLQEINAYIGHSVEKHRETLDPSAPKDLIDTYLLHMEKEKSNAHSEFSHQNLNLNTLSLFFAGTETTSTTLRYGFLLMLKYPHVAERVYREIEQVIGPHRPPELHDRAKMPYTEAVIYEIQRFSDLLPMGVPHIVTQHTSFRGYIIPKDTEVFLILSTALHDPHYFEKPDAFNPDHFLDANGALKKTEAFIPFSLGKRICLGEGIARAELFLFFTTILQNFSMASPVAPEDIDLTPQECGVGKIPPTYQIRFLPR

[4] = Permeability of compound in PBS at pH 7.4 at 500 uM incubated for 4 hrs by UV spectrophotometry based PAMPA; type: ADME; conditions: read-out: permeability
[5] = AUC in mouse at 5 mg/kg, iv; type: ADME, organism-based; conditions: in vivo
Cytochrome P450 3A4 [6] = target: T5, Cytochrome P450 3A4 (Homo sapiens, UniProt P08684); test: Inhibition of CYP3A4 (unknown origin) using testosterone as substrate […]; type: ADME
Cytochrome P450 2D6 = Cytochrome P450 2D6 (Homo sapiens, UniProt P10635); test: Inhibition of CYP2D6 (unknown origin) using dextromethorphan as substrate […]; type: ADME
[7] = Metabolic stability in pooled human liver microsomes assessed as half-life at 100 uM measured upto 120 mins by LC-MS/MS analysis; type: ADME, Microsome
MIA PaCa-2 = test: Antiproliferative activity against human MIA PaCa-2 cells assessed as inhibition of cell viability by MTT assay; type: functional, cell-based
[8] = target: T2, Protein cereblon/Cyclin-dependent kinase 5; test: PROTAC activity at CRBN/CDK5 in human PANC-1 cells assessed as induction of CDK5 degradation by measuring maximal efficacy by target engagement binding based cell-ELISA relative to control
Target sequence in this assay (Q00535 whole entry, looked up): as the sequence (Q00535 whole entry) above
Target sequence in this assay (Q96SW2 whole entry, looked up): as the sequence (Q96SW2 whole entry, looked up) above

Cytochrome P450 2C8 = target: T6, Cytochrome P450 2C8 (Homo sapiens, UniProt P10632); test: Inhibition of CYP2C8 (unknown origin) using amodiaquine as substrate […]; type: ADME
T6 sequence (P10632 whole entry): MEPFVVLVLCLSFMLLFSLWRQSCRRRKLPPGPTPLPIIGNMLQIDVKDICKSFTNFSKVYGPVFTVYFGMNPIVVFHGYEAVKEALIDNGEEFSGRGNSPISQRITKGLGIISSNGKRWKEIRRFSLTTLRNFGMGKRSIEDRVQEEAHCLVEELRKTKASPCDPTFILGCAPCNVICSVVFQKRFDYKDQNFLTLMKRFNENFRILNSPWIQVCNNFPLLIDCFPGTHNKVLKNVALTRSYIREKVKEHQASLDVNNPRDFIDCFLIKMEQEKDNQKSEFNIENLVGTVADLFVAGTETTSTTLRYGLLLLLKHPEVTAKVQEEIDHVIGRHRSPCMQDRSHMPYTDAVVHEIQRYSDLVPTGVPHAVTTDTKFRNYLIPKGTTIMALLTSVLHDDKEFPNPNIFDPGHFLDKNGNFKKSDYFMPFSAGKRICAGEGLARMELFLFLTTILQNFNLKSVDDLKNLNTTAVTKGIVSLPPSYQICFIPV

[9] = Bioavailability in mouse at 5 mg/kg, […]; type: ADME, organism-based; conditions: in vivo
[10] = Cytotoxicity against human HepG2 cells; type: toxicity, cell-based
[11] = Half-life in mouse at 5 mg/kg, iv; type: ADME, organism-based; conditions: in vivo
[12] = Tmax in mouse at 5 mg/kg, iv; type: ADME, organism-based; conditions: in vivo
[13] = target: T1, Protein cereblon/Glycogen synthase kinase-3 beta; test: PROTAC activity at CRBN/GSK3beta in human PANC-1 cells assessed as induction of GSK3beta degradation by target engagement binding based cell-ELISA
Target sequence in this assay (P49841 whole entry): as the sequence (P49841 whole entry, looked up) above
Target sequence in this assay (Q96SW2 whole entry): as the sequence (Q96SW2 whole entry, looked up) above

[14] = target: T1, Protein cereblon/Glycogen synthase kinase-3 beta; test: PROTAC activity at CRBN/GSK3beta in human PANC-1 cells assessed as induction of GSK3beta degradation at 0.5 to 2.8 uM incubated for 10 hrs in presence of MG132 by Western blot analysis; type: cell-based; conditions: dose 0.5-2.8 µM
Target sequence in this assay (P49841 whole entry, looked up): as the sequence (P49841 whole entry, looked up) above
Target sequence in this assay (Q96SW2 whole entry, looked up): as the sequence (Q96SW2 whole entry, looked up) above

[15] = Cmax in mouse at 5 mg/kg, iv; type: ADME, organism-based; conditions: in vivo
[16] = target: T2, Protein cereblon/Cyclin-dependent kinase 5; test: PROTAC activity at CRBN/CDK5 in human PANC-1 cells assessed as induction of CDK5 degradation at 0.5 to 2.8 uM incubated for 10 hrs in presence of MG132 by Western blot analysis; type: cell-based; conditions: dose 0.5-2.8 µM
Target sequence in this assay (Q00535 whole entry, looked up): as the sequence (Q00535 whole entry) above
Target sequence in this assay (Q96SW2 whole entry, looked up): as the sequence (Q96SW2 whole entry, looked up) above

[17] = Cytotoxicity against human A549 cells; type: toxicity, cell-based
[18] = Cmax in mouse at 5 mg/kg, po; type: ADME, organism-based; conditions: in vivo
[19] = Tmax in mouse at 5 mg/kg, po; type: ADME, organism-based; conditions: in vivo
[20] = target: T1, Protein cereblon/Glycogen synthase kinase-3 beta; test: PROTAC activity at CRBN/GSK3beta in human PANC-1 cells assessed as induction of GSK3beta degradation by measuring maximal efficacy by target engagement binding based cell-ELISA relative to control
Target sequence in this assay (P49841 whole entry, looked up): as the sequence (P49841 whole entry, looked up) above
Target sequence in this assay (Q96SW2 whole entry, looked up): as the sequence (Q96SW2 whole entry, looked up) above

[21] = Half-life in mouse at 5 mg/kg, po; type: ADME, organism-based; conditions: in vivo
ASPC1 = test: Antiproliferative activity against human ASPC1 cells assessed as inhibition of cell viability by MTT assay; type: functional, cell-based
[22] = AUC in mouse at 5 mg/kg, po; type: ADME, organism-based; conditions: in vivo
Cytochrome P450 2C9 = Cytochrome P450 2C9 (Homo sapiens, UniProt P11712); test: Inhibition of CYP2C9 (unknown origin) using diclofenac as substrate […]; type: ADME
BXPC-3 = test: Antiproliferative activity against human BXPC-3 cells assessed as inhibition of cell viability by MTT assay; type: functional, cell-based
Cytochrome P450 3A4 [23] = target: T5, Cytochrome P450 3A4; test: Inhibition of CYP3A4 (unknown origin) using midazolam as substrate […]; type: ADME
[24] = Oral bioavailability in mouse at 5 mg/kg; type: ADME, organism-based; conditions: in vivo
[25] = Observed clearance in mouse at 5 mg/kg, po; type: ADME, organism-based; conditions: in vivo

T5 sequence (P08684 whole entry): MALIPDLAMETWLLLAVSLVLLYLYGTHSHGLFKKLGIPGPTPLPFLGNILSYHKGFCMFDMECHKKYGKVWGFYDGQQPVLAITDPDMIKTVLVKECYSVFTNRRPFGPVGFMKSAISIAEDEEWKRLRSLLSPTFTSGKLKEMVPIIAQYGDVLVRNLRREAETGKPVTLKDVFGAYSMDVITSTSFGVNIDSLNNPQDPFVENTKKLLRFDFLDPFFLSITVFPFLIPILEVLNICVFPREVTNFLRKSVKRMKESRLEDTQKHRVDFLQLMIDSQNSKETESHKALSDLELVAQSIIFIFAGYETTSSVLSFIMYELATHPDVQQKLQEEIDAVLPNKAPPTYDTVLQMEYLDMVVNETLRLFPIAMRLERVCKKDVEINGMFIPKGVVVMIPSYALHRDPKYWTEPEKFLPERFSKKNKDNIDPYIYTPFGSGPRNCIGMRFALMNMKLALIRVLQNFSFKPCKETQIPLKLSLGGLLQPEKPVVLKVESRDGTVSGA
Sequence of Cytochrome P450 2C19 (P33261 whole entry): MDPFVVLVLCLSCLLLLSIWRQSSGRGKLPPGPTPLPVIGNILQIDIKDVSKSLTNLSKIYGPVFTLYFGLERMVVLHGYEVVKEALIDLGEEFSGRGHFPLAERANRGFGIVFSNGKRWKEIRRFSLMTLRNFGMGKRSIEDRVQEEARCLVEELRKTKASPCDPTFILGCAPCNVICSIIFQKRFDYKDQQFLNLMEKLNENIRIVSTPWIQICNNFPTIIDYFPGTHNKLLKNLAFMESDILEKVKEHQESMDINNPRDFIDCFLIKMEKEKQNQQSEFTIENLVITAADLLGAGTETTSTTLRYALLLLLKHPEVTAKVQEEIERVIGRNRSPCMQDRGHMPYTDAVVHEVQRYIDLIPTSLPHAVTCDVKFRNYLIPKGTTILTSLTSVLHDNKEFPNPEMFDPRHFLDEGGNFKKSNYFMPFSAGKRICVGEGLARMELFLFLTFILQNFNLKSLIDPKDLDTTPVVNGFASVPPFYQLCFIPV
Sequence of Cytochrome P450 2D6 (P10635 whole entry): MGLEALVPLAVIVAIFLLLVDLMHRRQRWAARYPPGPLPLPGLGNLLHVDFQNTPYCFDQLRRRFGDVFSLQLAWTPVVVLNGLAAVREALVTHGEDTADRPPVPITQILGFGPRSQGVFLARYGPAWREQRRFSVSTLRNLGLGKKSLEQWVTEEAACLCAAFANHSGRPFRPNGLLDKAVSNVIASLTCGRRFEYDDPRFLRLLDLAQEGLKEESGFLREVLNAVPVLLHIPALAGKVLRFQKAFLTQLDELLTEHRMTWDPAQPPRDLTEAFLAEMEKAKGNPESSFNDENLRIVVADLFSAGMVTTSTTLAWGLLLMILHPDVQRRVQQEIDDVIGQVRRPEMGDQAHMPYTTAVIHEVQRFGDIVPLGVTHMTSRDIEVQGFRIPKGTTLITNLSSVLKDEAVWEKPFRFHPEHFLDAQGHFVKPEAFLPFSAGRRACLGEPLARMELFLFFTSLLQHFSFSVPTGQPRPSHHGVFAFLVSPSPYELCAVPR
Sequence of Cytochrome P450 2C9 (P11712 whole entry): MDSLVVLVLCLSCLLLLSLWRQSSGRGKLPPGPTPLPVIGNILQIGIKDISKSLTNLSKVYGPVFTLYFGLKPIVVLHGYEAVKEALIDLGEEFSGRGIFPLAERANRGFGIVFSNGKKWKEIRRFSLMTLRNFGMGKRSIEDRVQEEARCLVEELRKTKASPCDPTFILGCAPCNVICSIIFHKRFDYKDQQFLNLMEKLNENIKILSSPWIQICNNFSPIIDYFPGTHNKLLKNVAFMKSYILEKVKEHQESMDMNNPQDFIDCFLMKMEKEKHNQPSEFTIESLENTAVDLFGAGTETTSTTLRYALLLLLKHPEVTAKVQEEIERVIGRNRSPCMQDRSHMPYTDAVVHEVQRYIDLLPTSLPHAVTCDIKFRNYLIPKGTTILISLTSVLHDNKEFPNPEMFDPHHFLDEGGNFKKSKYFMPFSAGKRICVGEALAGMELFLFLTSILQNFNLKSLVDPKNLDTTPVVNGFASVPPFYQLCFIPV

- Activity [1]: Active
- DC50 [2]: 0.048 µM
- IC50 (Cytochrome P450 1A2): 55.2 µM
- Activity [3]: Active
- IC50 (PANC-1): 1.81 µM
- IC50 (Cytochrome P450 2C19): 46.2 µM
- IC50 (Cytochrome P450 2B6): 45.3 µM
- Papp at 4 h, 500 µM [4]: 79.9 ×10⁻⁶ cm/s
- AUC [5]: 3700 ng·h/mL
- IC50 (Cytochrome P450 3A4 [6]): 25.3 µM
- IC50 (Cytochrome P450 2D6): 45.5 µM
- half-life at 100 µM [7]: 0.934 h
- IC50 (MIA PaCa-2): 2.16 µM
- Emax [8]: 88%
- IC50 (Cytochrome P450 2C8): > 100 µM
- bioavailability [9]: 35%
- half-life [11]: 6 h
- Tmax [12]: 4 h
- DC50 [13]: 0.042 µM
- Activity [14]: inactive
- Cmax [15]: 961 ng/mL
- Activity [16]: inactive
- Cmax [18]: 761 ng/mL
- Tmax [19]: 2 h
- Emax [20]: 90%
- half-life [21]: 4 h
- IC50 (ASPC1): 1.96 µM
- AUC [22]: 1550 ng·h/mL
- IC50 (Cytochrome P450 2C9): 33.3 µM
- IC50 (BXPC-3): 2.95 µM
- IC50 (Cytochrome P450 3A4 [23]): 39.2 µM
- F [24]: 15%
- CL/F [25]: 90 mL/min/kg
Compound: O=C1CCC(N2C(=O)c3cccc(NCCCCCn4cc(CN5CCN(CCCn6cc(C7=C(c8c[nH]c9ccccc89)C(=O)NC7=O)c7ccccc76)CC5)nn4)c3C2=O)C(=O)N1 (stereo not given)
- CC50 [10]: 9.05 µM
- CC50 [17]: 8.23 µM
